From article PMC6271476, “Synthesis, Anticancer Activity and UPLC Analysis of the Stability of Some New Benzimidazole-4,7-dione Derivatives” (Molecules, 2013) come the findings set out here.

For data set [1], the system named is human lung adenocarcinoma A549 cells. The data set can be described thus: WST-1 cell viability assay, growth inhibition of A549 cells under normoxia and hypoxia. The settings on record: for Differential cytotoxicity O/H (hypoxic/aerobic cytotoxicity coefficient): ratio IC50 normoxia / IC50 hypoxia, A549; for inhibition of the cell growth / decrease of cell viability compared to control cells: compound at 10 µM, 48 h.
Method: (§1) The human lung adenocarcinoma A549 cell line, purchased from Health Protection Agency Culture Collections (ECACC, Salisbury, UK), was cultured in F12K medium (HyClone, Loughborough, UK) supplemented with 10% heat-inactivated foetal bovine serum (FBS), penicillin (10 U/mL) and streptomycin (10 µg/mL) in air with 5% CO2 at 37 °C. Hypoxic cells were obtained by culturing in a hypoxic incubator in 1% O2 and 5% CO2 at 37 °C for 24 h before treatment.
(§2) In order to determine the anticancer activity of the analysed compounds we evaluated the cell viability using THE WST-1 assay (Millipore, Billerica, MA, USA) according to the manufacturer’s instructions.
(§3) The absorbance was determined at 420 nm using a microplate reader (Synergy H1, Bio-Tek, Winooski, VT, USA) after 3 h of incubation at 37 °C.
(§4) In order to determine the anticancer activity of the analysed compounds we evaluated the cell viability using the WST-1 assay, which is based on the conversion of the tetrazolium salt WST-1 to formazan by cellular mitochondrial dehydrogenases. Therefore, the amount of formazan dye formed directly correlates with the number of live cells in the culture.
(§5) A549 cells were seeded in 96-well plates at a density of 5,000 cells/well and cultured under normoxic conditions. To investigate the effect of compounds on hypoxic cancer cells, A549 cells were exposed to hypoxia (1% O2) for 24 h before treatment. […] Normoxic and hypoxic cells were treated with different concentrations of the tested compounds or vehicle (0.2% DMSO) for control cells. The cell viability was assessed after a 48 h incubation under normoxic or hypoxic conditions with the compounds. Briefly, WST-1 reagent was added to the cells and the percentage (%) of cell viability related to control cells was calculated by the expression [A] test/[A] control × 100 where [A] test is the absorbance of the cells treated with compounds and [A] control is the absorbance of control cells.

A short description of data set [2]: Stability (degradation kinetics, recovery) in different solvent environments by RP-UPLC. In kind it is physicochemical. Particulars: for half-life at 0.1 mg/mL: read-out: degradation t1/2 (converted).
Test in data set [3]: as above
In kind it is physicochemical. Particulars: for half-life at 0.1 mg/mL: read-out: degradation t1/2 (converted). The protocol: Chromatographic purification was performed on silica gel plates (Merck F254, Darmstadt, Germany) with the indicated eluents. Chemicals and solvents were obtained from commercial sources. The UPLC system consisted of an Acquity Ultra Performance LC Waters H-class system (Waters, Corporation, Milford, MA, USA). Chromatographic separation was achieved on an Acquity UPLC HSS T3 column (1.8 µm × 2.1 × 50 mm). The chromatographic peaks were identified with the Waters PDA eλ Acquity UPLC Detector. Compound 5b was monitored at a wavelength of 261 nm and compound 6b at 289 nm. All chromatographic experiments were performed in an isocratic mode. The mobile phase consisted of a mixture of solvents of chromatographic purity, acetonitrile/buffer (30:70 v/v). Buffer was a 0.01 M mixture of ammonium formate and formic acid pH = 2.4. The flow rate was set to 0.5 mL/min and the oven temperature to 25 °C. Compound samples were weighed on analytical scales with an accuracy of 0.01 mg. All the samples were prepared in 5, 10 and 25 mL volumetric flasks. Solution volume injections of 1.5 µL were performed with the use of an autosampler. Each sample was analysed three times and the run time analysis was five minutes. All solutions were filtered through a 0.45 µm membrane filter. The final result was presented as an arithmetical mean. The control of the UPLC system and detection was achieved by the Empower 3 Waters® software. Solvents for UPLC analysis were of UPLC grade and obtained from J. T. Baker (Center Valley, PA, USA). The method was validated in terms of precision, accuracy, specificity, detectability, and stability for compounds 5b and 6b.
Stability: Each medium (1 mL, 0.2% DMSO, water, 0.9% NaCl, and HCl pH = 1.5) was added to 10 mL volumetric flasks containing products 5b and 6b (1 mg). The flasks were filled up with the mobile phase. Each solution was analysed at t0 and after 6, 24, 48, and 72 h. The obtained calibration curve was used for the determination of degradation kinetics of the compounds in the solvents. The degradation kinetic parameters: rate constant (k) and t1/2 (half-life) were calculated with the use of Equation (3), where c0 is the concentration at time zero, c is the remaining concentration, k is the rate constant (h^−1) and t is the time (h): […]
The source holds these as a separate data set.

The test system of data set [4] is human lung adenocarcinoma A549 cells.
Method: as §1, §2, §3, §4, §5
[5] abbreviates: read-out: IC50 A549 Hypoxia (H), A549 cells, hypoxia (1% O2, 24 h before treatment and during culture), 48 h incubation, WST-1, mean ± SD, n = 3.
[6] abbreviates: Homo sapiens, A549, 48 h, read-out: IC50 A549 Normoxia (O), A549 cells, normoxia, 48 h incubation, WST-1, mean ± SD, n = 3.
[7] abbreviates: Homo sapiens, A549, read-out: IC50 A549 Hypoxia (H), A549 cells, hypoxia (1% O2, 24 h before treatment and during culture), 48 h incubation, WST-1, mean ± SD, n = 3.
[8] abbreviates: read-out: IC50 A549 Normoxia (O), A549 cells, normoxia, 48 h incubation, WST-1, mean ± SD, n = 3.

Like-named read-outs stand apart in the source and are kept apart here.

Turning to `O=C1C=CC(=O)c2c1[nH]c(-c1ccc3ccccc3c1)[n+]2[O-]` [Compound 6d, 2-Naphthyl-1H-benzimidazol-4,7-dione N-oxide], the “Differential cytotoxicity O/H (hypoxic/aerobic cytotoxicity coefficient)” value in data set [1] worked out at 2.62. In addition, in data set [1] (setting [5]), the 50% inhibitory concentration (IC50) (usually the point on the concentration scale where inhibition reaches its midpoint) amounted to 96.8 ± 1.9 µM.
Take `O=C1C=CC(=O)c2[nH]c(-c3ccc4c(c3)OCO4)nc21` [Compound 5c, 2-Benzo[1,3]dioxol-1H-benzimidazol-4,7-dione]: the IC50 in data set [1] (setting [6]) came out at 80.9 ± 1.9 µM; in data set [1] (setting [7]) it was 51.2 ± 1.5 µM. The “Differential cytotoxicity O/H (hypoxic/aerobic cytotoxicity coefficient)” value in data set [1] is 1.58.
For `O=C1C=CC(=O)c2[nH]c(-c3ccccc3[N+](=O)[O-])nc21` [Compound 5b, 2-(2-Nitrophenyl)-1H-benzimidazol-4,7-dione], the half-life at 0.1 mg/mL is greater than 72 h in data set [2] (MeOH); 215 h in data set [3] (0.2% DMSO); 155 h in data set [3] (0.9% NaCl); greater than 72 h in data set [3] (water, H2O). The degradation entry in data set [2] (methanol, up to 72 h) is “did not suffer any degradation”; in data set [3] (water, up to 72 h) it was “did not suffer any degradation”. Moreover, the IC50 in data set [1] (setting [6]) is less than 100 µM; in data set [1] (setting [7]) it was 47.4 ± 1.1 µM; in data set [1] (setting [8]), 100 ± 1.8 µM. Further, the “Differential cytotoxicity O/H (hypoxic/aerobic cytotoxicity coefficient)” value in data set [1] turned out to be 2.13. Moreover, the “degradation rate constant k” value in data set [3] (0.2% DMSO) turned out to be 0.0002 h⁻¹; in data set [3] (0.9% NaCl) it was 0.0004 h⁻¹.
Regarding “2-(4-Chlorophenyl)-1H-benzimidazol-4,7-dione N-oxide [Compound 6a]”, in data set [4], the “Differential cytotoxicity O/H (hypoxic/aerobic cytotoxicity coefficient)” value came out at 3.28. Also, the “inhibition of the cell growth / decrease of cell viability compared to control cells” value in data set [1] (normoxia) was 20%. Also, the values for the IC50 in data set [1] (setting [5]) and in data set [1] (setting [8]) were 35 ± 1.6 µM and 116 ± 1.9 µM, respectively.
For `O=C1C=CC(=O)c2[nH]c(-c3ccc4ccccc4c3)nc21` [Compound 5d, 2-Naphthyl-1H-benzimidazol-4,7-dione], in data set [1], the “Differential cytotoxicity O/H (hypoxic/aerobic cytotoxicity coefficient)” value is listed as 2.06. Further, the IC50 in data set [1] (setting [5]) worked out at 232.4 ± 1.4 µM.
For `Nc1n[n+]([O-])c2ccccc2[n+]1[O-]` [Tirapazamine, reference compound], the IC50 in data set [1] (setting [6]) came out at 166 µM; in data set [1] (setting [7]), 30 ± 1.5 µM; in data set [1] (setting [8]), 166.2 ± 1.6 µM.
On to `O=C1C=CC(=O)c2[nH]c(-c3ccc(Cl)cc3)nc21` [Compound 5a, 2-(4-Chlorophenyl)-1H-benzimidazol-4,7-dione], for which the IC50 in data set [1] (setting [6]) is 30.2 ± 1.2 µM; in data set [1] (setting [7]), 36.1 ± 1.2 µM. The “inhibition of the cell growth / decrease of cell viability compared to control cells” value in data set [1] (normoxia) is “approximately 33%”. The “Differential cytotoxicity O/H (hypoxic/aerobic cytotoxicity coefficient)” value in data set [1] is 0.83.
On to `O=C1C=CC(=O)c2c1[nH]c(-c1ccccc1[N+](=O)[O-])[n+]2[O-]` [Compound 6b, 2-(2-Nitrophenyl)-1H-benzimidazol-4,7-dione N-oxide], for which the “degradation rate constant k” value in data set [2] (MeOH) came to 0.0002 h⁻¹; in data set [3] (0.2% DMSO) it was 0.00009 h⁻¹; in data set [3] (0.9% NaCl), 0.0004 h⁻¹; in data set [3] (H2O), 0.0004 h⁻¹. Further, the half-life at 0.1 mg/mL in data set [2] (MeOH) is 161 h; in data set [3] (0.2% DMSO) it was 413 h; in data set [3] (0.9% NaCl), 142 h; in data set [3] (water, H2O), 146 h. In addition, the IC50 in data set [1] (setting [7]) was determined as 116 ± 0.8 µM. Moreover, the “Differential cytotoxicity O/H (hypoxic/aerobic cytotoxicity coefficient)” value in data set [1] turned out to be 4.31.
`O=C1C=CC(=O)c2c1[nH]c(-c1ccc3c(c1)OCO3)[n+]2[O-]` [Compound 6c, 2-Benzo[1,3]dioxol-1H-benzimidazol-4,7-dione N-oxide]: the results for the IC50 in data set [1] (setting [6]) and in data set [1] (setting [7]) were 79.5 ± 1.9 µM and 44 ± 2.5 µM, respectively. The “Differential cytotoxicity O/H (hypoxic/aerobic cytotoxicity coefficient)” value in data set [1] stood at 1.80.
